± gives the standard deviation of the averaged measurements.
Columns and labels:
[1] = compound: CC(=O)NCC(=O)N1[C@@H]2CC[C@H]1c1ccc(Nc3ncc(C(F)(F)F)c(NC4CCC4)n3)cc12; experiment: surviving fraction relative to DMSO-only wells; higher = less growth inhibition; details: exposure time: 5 days
In short: (§1)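 Viability values are CellTiter-Glo luminescence readings, given as surviving fraction against the median of DMSO-only wells. The readings were taken after 10 minutes at room temperature, following five days of continuous exposure to inhibitors at 0.5, 1, 5, 10, 50, 100, 500 and 1000 nM that began 24 hours after log-phase tumour cell lines were seeded at 250–500 cells per well in 384-well plates. Every line was screened three times and kept only if replicate Pearson r >0.7 and median Z' >0.3.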

[2] = compound: T1, CC(=O)O[C@H]1C(=O)[C@@]2(C)[C@H]([C@H](OC(=O)c3ccccc3)[C@]3(O)C[C@H](OC(=O)[C@H](O)[C@@H](NC(=O)c4ccccc4)c4ccccc4)C(C)=C1C3(C)C)[C@]1(OC(C)=O)CO[C@@H]1C[C@@H]2O [PACLITAXEL]; experiment: as above; details: exposure time: 5 days
In short: as §1

[3] = compound: CC(=O)c1c(C)c2cnc(Nc3ccc(N4CCNCC4)cn3)nc2n(C2CCCC2)c1=O; experiment: as above; details: exposure time: 5 days
In short: as §1

[4] = compound: T2, CC[C@@]1(O)C(=O)OCc2c1cc1n(c2=O)Cc2cc3ccccc3nc2-1 [CAMPTOTHECIN]; experiment: as above; details: exposure time: 5 days
In short: as §1

[5] = compound: T3, COCC[n+]1c2c(n(Cc3cnccn3)c1C)C(=O)c1ccccc1C2=O [YM155]; experiment: as above; details: exposure time: 5 days
In short: as §1

[6] = compound: T4, COc1cc2ncnc(Nc3ccc(F)c(Cl)c3)c2cc1OCCCN1CCOCC1 [GEFITINIB]; experiment: as above; details: exposure time: 5 days
In short: as §1

[7] = compound: T5, C[C@]1(O)C[C@@H](c2nc(-c3ccc4ccc(-c5ccccc5)nc4c3)c3c(N)nccn32)C1 [OSI-906]; experiment: as above; details: exposure time: 5 days
In short: as §1

[8] = compound: T6, Cc1ccc(-c2cc(C(F)(F)F)nn2-c2ccc(S(N)(=O)=O)cc2)cc1 [CELECOXIB]; experiment: as above; details: exposure time: 5 days
In short: as §1

[9] = compound: T7, O=C(O)C1(C(=O)O)CCC1.[NH2-].[NH2-].[Pt+2] [CARBOPLATIN]; experiment: as above; details: exposure time: 5 days
In short: as §1

[10] = compound: CC(=O)NCC(=O)N1[C@@H]2CC[C@H]1c1ccc(Nc3ncc(C(F)(F)F)c(NC4CCC4)n3)cc12; experiment: area under dose-response curve of surviving fraction (unscaled, Aref=0) (surviving fraction x log10(nM)); higher = more resistant; details: exposure time: 5 days; dose range 0.5-1000 nM
In short: (§2)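 Tumour cell lines in 384-well plates were exposed for five days to eight inhibitor concentrations from 0.5 to 1000 nM. Viability was read by CellTiter-Glo luminescence, normalised to DMSO-only wells, in three screens per line. Dose-response survival curves were fitted to surviving fractions by 3-parameter logistic regression in the drc R package. Area under the curve is the unscaled activity area (Aref = 0) over log10 dose.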

[11] = compound: T1, PACLITAXEL; experiment: as above; details: exposure time: 5 days; dose range 0.5-1000 nM
In short: as §2

[12] = compound: T2, CAMPTOTHECIN; experiment: as above; details: exposure time: 5 days; dose range 0.5-1000 nM
In short: as §2

[13] = compound: T3, YM155; experiment: as above; details: exposure time: 5 days; dose range 0.5-1000 nM
In short: as §2

[14] = compound: T4, GEFITINIB; experiment: as above; details: exposure time: 5 days; dose range 0.5-1000 nM
In short: as §2

[15] = compound: T5, OSI-906; experiment: as above; details: exposure time: 5 days; dose range 0.5-1000 nM
In short: as §2

[16] = compound: T6, CELECOXIB; experiment: as above; details: exposure time: 5 days; dose range 0.5-1000 nM
In short: as §2

[17] = compound: T7, CARBOPLATIN; experiment: as above; details: exposure time: 5 days; dose range 0.5-1000 nM
In short: as §2

## SG32 HEADNECK
[1]; 0.5 nM
  surviving fraction: 1.19 ± 0.078
[1]; 1 nM
  surviving fraction: 1.02 ± 0.12
[1]; 5 nM
  surviving fraction: 0.952 ± 0.044
[1]; 10 nM
  surviving fraction: 1.14 ± 0.031
[1]; 50 nM
  surviving fraction: 0.758 ± 0.26
[1]; 100 nM
  surviving fraction: 0.474 ± 0.036
[1]; 500 nM
  surviving fraction: 0.432 ± 0.095
[1]; 1000 nM
  surviving fraction: 0.398 ± 0.023
[2]; 0.5 nM
  surviving fraction: 0.906 ± 0.26
[2]; 1 nM
  surviving fraction: 0.603 ± 0.093
[2]; 5 nM
  surviving fraction: 0.275 ± 0.032
[2]; 10 nM
  surviving fraction: 0.259 ± 0.015
[2]; 50 nM
  surviving fraction: 0.281 ± 0.062
[2]; 100 nM
  surviving fraction: 0.275 ± 0.02
[2]; 500 nM
  surviving fraction: 0.244 ± 0.02
[2]; 1000 nM
  surviving fraction: 0.218 ± 0.021
[3]; 0.5 nM
  surviving fraction: 1.05 ± 0.16
[3]; 1 nM
  surviving fraction: 1.31 ± 0.3
[3]; 5 nM
  surviving fraction: 1.2 ± 0.11
[3]; 10 nM
  surviving fraction: 1.09 ± 0.082
[3]; 50 nM
  surviving fraction: 0.942 ± 0.11
[3]; 100 nM
  surviving fraction: 0.993 ± 0.16
[3]; 500 nM
  surviving fraction: 0.699 ± 0.059
[3]; 1000 nM
  surviving fraction: 0.721 ± 0.03
[4]; 0.5 nM
  surviving fraction: 0.308 ± 0.056
[4]; 1 nM
  surviving fraction: 0.492 ± 0.0071
[4]; 5 nM
  surviving fraction: 0.336 ± 0.0083
[4]; 10 nM
  surviving fraction: 0.447 ± 0.071
[4]; 50 nM
  surviving fraction: 0.25 ± 0.036
[4]; 100 nM
  surviving fraction: 0.263 ± 0.037
[4]; 500 nM
  surviving fraction: 0.0417 ± 0.0055
[4]; 1000 nM
  surviving fraction: 0.026 ± 0.002
[5]; 0.5 nM
  surviving fraction: 0.841 ± 0.053
[5]; 1 nM
  surviving fraction: 0.83 ± 0.12
[5]; 5 nM
  surviving fraction: 0.438 ± 0.017
[5]; 10 nM
  surviving fraction: 0.238 ± 0.036
[5]; 50 nM
  surviving fraction: 0.0633 ± 0.027
[5]; 100 nM
  surviving fraction: 0.025 ± 0.0036
[5]; 500 nM
  surviving fraction: 0.0197 ± 0.0021
[5]; 1000 nM
  surviving fraction: 0.0227 ± 0.0011
[6]; 0.5 nM
  surviving fraction: 1.33 ± 0.14
[6]; 1 nM
  surviving fraction: 1.37 ± 0.097
[6]; 5 nM
  surviving fraction: 1.39 ± 0.32
[6]; 10 nM
  surviving fraction: 1.19 ± 0.24
[6]; 50 nM
  surviving fraction: 1.28 ± 0.066
[6]; 100 nM
  surviving fraction: 1.1 ± 0.12
[6]; 500 nM
  surviving fraction: 0.826 ± 0.15
[6]; 1000 nM
  surviving fraction: 0.961 ± 0.094
[7]; 0.5 nM
  surviving fraction: 0.714 ± 0.15
[7]; 1 nM
  surviving fraction: 0.689 ± 0.0095
[7]; 5 nM
  surviving fraction: 0.767 ± 0.13
[7]; 10 nM
  surviving fraction: 0.632 ± 0.057
[7]; 50 nM
  surviving fraction: 0.845 ± 0.021
[7]; 100 nM
  surviving fraction: 0.793 ± 0.071
[7]; 500 nM
  surviving fraction: 0.596 ± 0.084
[7]; 1000 nM
  surviving fraction: 0.498 ± 0.048
[8]; 0.5 nM
  surviving fraction: 1.37 ± 0.15
[8]; 1 nM
  surviving fraction: 1.15 ± 0.063
[8]; 5 nM
  surviving fraction: 1.29 ± 0.13
[8]; 10 nM
  surviving fraction: 1.18 ± 0.26
[8]; 50 nM
  surviving fraction: 1.22 ± 0.063
[8]; 100 nM
  surviving fraction: 1.1 ± 0.12
[8]; 500 nM
  surviving fraction: 1.64 ± 0.21
[8]; 1000 nM
  surviving fraction: 1.19 ± 0.062
[9]; 0.5 nM
  surviving fraction: 1.12 ± 0.12
[9]; 1 nM
  surviving fraction: 1.07 ± 0.17
[9]; 5 nM
  surviving fraction: 1.15 ± 0.17
[9]; 10 nM
  surviving fraction: 1.17 ± 0.051
[9]; 50 nM
  surviving fraction: 1.27 ± 0.12
[9]; 100 nM
  surviving fraction: 1.38 ± 0.35
[9]; 500 nM
  surviving fraction: 1.16 ± 0.2
[9]; 1000 nM
  surviving fraction: 1.04 ± 0.17
[10]
  area under dose-response curve: 2.57
[11]
  area under dose-response curve: 1.08
[12]
  area under dose-response curve: 0.888
[13]
  area under dose-response curve: 0.928
[14]
  area under dose-response curve: 4.01
[15]
  area under dose-response curve: 2.28
[16]
  area under dose-response curve: 4.18
[17]
  area under dose-response curve: 3.86

From the supplement of paper PMC6045584
